In assay [1] the test system is RSV. Briefly: RSV plaque reduction assay on Vero cells (Example 1). The assay is classed as cell-based, RSV/A2. How it is done: Dilutions of Fkn (R&D systems), SDF-1 α (R&D systems), G glycoprotein, heparin (Sigma), G glycoprotein peptides and anti-CX3CR1 antibody were made in serum-free Dulbecco's Modified Eagle's Media (DMEM; GIBCO) containing 1% BSA (Sigma) and preincubated with the Vero cells for 1 h at 37° C. 50 μg of anti-CX3CR1 antibody or heat-inactivated (56° C., 30 min) normal rabbit sera (control) were used in all experiments. […] Dilutions of RSV were made in serum-free DMEM (GIBCO) and added to pretreated Vero cells for 2 h at 37° C. Following virus infection, DMEM (GIBCO) containing 10% FBS (Hyclone, Logan, Utah) was added to the wells. Plaques were enumerated using immunostaining for F and G glycoproteins using biotinylated monoclonal antibodies 131-2A (anti-F glycoprotein) and 130-2G (anti-G glycoprotein) as described^45.
RSV plaque reduction following treatment with G glycoprotein, Fkn, G glycoprotein peptides, anti-CX3CR1 antibody, SDF-1-α and/or heparin as described in Methods. Percent inhibition was determined from the mean plaque forming units (pfu) of treated Vero cells over saline-treated Vero cells using a dilution of RSV that would produce 40-80 pfu. p-values were determined using unpaired two-tailed analysis where p<0.05 is significant. The concentration of G glycoprotein was estimated using a molecular weight of 90 kD.
(In general: Plaque reduction counts the foci of infection that form in a cell layer.)

Assay [2] concerns CD3+ BAL cells. As to the kind of experiment: Intracellular cytokine expression by CD3+ T cells following in vivo peptide treatment. Also on record: species or system BALB/c mice. How it is done:
(§1) On day −1, prior to RSV infection, mice were i.p. treated (0.1 ml/mouse) with 100 μM of G glycoprotein peptides RT33 (CWAIC) (SEQ ID NO: 12), RT34 (lacks the CX3C motif) or peptides with changes in the CX3C motif (Δ+1, Δ−1, EYp1). Control mice were treated with PBS containing a similar dilution of DMSO used to solubilize the peptides.
Intracellular cytokine staining was modified for microculture staining as described (55, 57). Briefly, BAL cells were incubated in PBS containing Golgi Stop (Pharmingen) for 3 h at 37° C. to allow for accumulation of intracellular cytokines. The cells were washed in PBS containing 1% bovine serum albumin, blocked with 10% normal mouse sera diluted in PBS containing 1% bovine serum albumin, and stained (4° C., 30 min) with an appropriate dilution of anti-CD3 antibody, fixed and permeabilized in Cytofix/Cytoperm (Pharmingen). The cells were washed in Cytofix/Cytoperm buffer and stained (4° C., 30 min) with appropriate dilutions of anti-IL-2 (JES6-5H4), anti-IL-4 (BVD4-1D11), anti-IL-5 (TRFK5), IL-10 (JES3-16E3), anti-IFNγ (XMG1.2), or anti-TNFα (MP6-XT22) antibodies (Pharmingen) diluted in Cytofix/Cytoperm. Extra- and intracellular staining was analyzed by flow cytometry using a FACScan and Cell Quest software (Becton Dickinson, San Diego, Calif.). Total cytokine expression by CD3+ T cells was determined from the percent cytokine expression of CD3+ T cells and total number of cells recovered. The total number of CD3+ BAL cells expressing a particular cytokine was determined by multiplying the total number of BAL cells by the percent CD3+ cells expressing that particular cytokine.

For assay [3], the system named is bronchoalveolar leukocytes (BAL). As to the kind of experiment: BAL cell infiltration and cell types in RSV-infected mice following in vivo peptide treatment. Also on record: species or system BALB/c mice. The settings on record: in words.
Source text: Total pulmonary leukocyte trafficking following treatment of mice with peptides containing a CX3C motif (RT33 and EYp1) (A) or peptides without a CX3C motif (RT34, Δ+1, Δ−1)(B).
Flow cytometry results following treatment (d−1) of mice with PBS, RT33, RT34, Δ+1, Δ−1 and EYp1 peptides (100 μm). BAL cells were stained with antibodies against B220^+ (A, D, G), CD3^+ (B, E, H) and CD11b^+ (C, F, I) cells. Data is expressed as the total BAL cells/lung±SEM at days 3, 5, 7 and 14 post-infection. A representative experiment from 3 independent experiments is shown.
Flow cytometry results following treatment (d−1) of mice with PBS, RT33, RT34, Δ+1, Δ−1 and EYp1 peptides (100 μm). BAL cells were stained with antibodies against NK (DX5^+) (A, C, E) and PMN (RB6-8C5^+) cells (B, D, F). Data is expressed as the total BAL cells/lung±SEM at days 3, 5, 7 and 14 post-infection. A representative experiment from 3 independent experiments is shown.
as §1
Mice were anesthetized with Avertin and exsanguinated by severing the right caudal artery. Bronchoalveolar leukocyte (BAL) cells were harvested by lung lavage with PBS containing 1% bovine serum albumin (BSA, Sigma). The procedure used for extracellular staining of BAL cells was modified for microculture staining as described (55,57). Briefly, BAL cells were washed in Dulbecco's PBS (GIBCO) containing 1% bovine serum albumin (Sigma), blocked with 10% normal mouse sera diluted in PBS containing 1% bovine serum albumin, and then stained (4° C., 30 min) with an appropriate dilution of FITC-conjugated or PE-conjugated anti-CD3ε (145-2C11), anti-CD45R/B220 (RA3-6B2), anti-CD8 (Ly-2), anti-neutrophil (PMN) (RB6-8C5), anti-CD11b (M1/70) and isotype antibody controls (all from Pharmingen, San Diego, Calif.).

In assay [4] the target is T1, Fkn binding to 293-CX3CR1 cells (Homo sapiens, UniProt P49238).
T1 construct: host or cells: HEK 293 cells stably transfected with CX3CR1
As to conditions: chemokine 10 μM.

Assay [5] deals with G glycoprotein binding to 293-CX3CR1 cells. Further details: species or system human. The settings on record: chemokine 10 μM. The method, then: All binding studies were done on ice and either G glycoprotein or human Fkn (R&D Diagnostics, Minneapolis, Minn.) were diluted between 1 nM-100 nM in PBS (GIBCO) containing 1% bovine serum albumin (Sigma) and incubated with the 293-CX3CR1 cells or 293 control cells for 30 min at 4° C. […] Without washing, 100 pM of either Fkn or G glycoprotein was added and incubated for 30 min at 4° C. The cells were washed, blocked with FcγRIII blocking antibody (HB197) for 30 min on ice, washed and stained as appropriate with either an anti-G glycoprotein monoclonal antibody cocktail (132-5B, 132-5G, 130-2G, 232-IF) or a biotinylated anti-G glycoprotein monoclonal antibody cocktail (130-2G, 131-2G) or anti-Fkn monoclonal antibody (51637.11; R&D Diagnostics). Concentrations of 1 μg of anti-G glycoprotein monoclonal antibody (131-2G)^34, rabbit anti-CX3CR1 sera^33, and anti-CX3CR1 monoclonal antibody containing 10 μg/ml heparin were used in all experiments. […] Staining was detected with absorbed FITC-goat anti-mouse (H & L chain) monoclonal antibody (PharMingen, San Diego, Calif.) or streptavidin-PE (PharMingen) using flow cytometry (FACScan, Becton-Dickinson, Mountain View, Calif.). A 76 amino acid ^125I-Fkn polypeptide comprising the […] (NEN, Boston, Mass.) was used in radioligand studies^33. As a control, the void volume following purified G glycoprotein passaged over an anti-G glycoprotein antibody (130-2G) affinity column was examined by flow cytometry for binding to either 293 or 293-CX3CR1 cells.
For peptide inhibition studies, a series of G glycoprotein peptides were identified in the amino acid sequence of the A2 strain of RSV (GENBANK, attachment protein locus 1912305, Table 4). The peptides were synthesized using a simultaneous, multiple solid-phase peptide synthesis method on a peptide synthesizer (Perkin-Elmer Applied Biosystems, Berkeley, Calif.), and tested for homogeneity by reverse-phase liquid chromatography and capillary electrophoresis (www.biotech.cdc.gov/protein/methods). Inhibition assays were performed as described for the binding studies above.
To determine if G glycoprotein bound 293-CX3CR1 cells via CX3CR1, the ability of four reagents (anti-CX3CR1 rabbit antiserum, anti-CX3CR1 monoclonal antibody (2A9-1), Fkn and a 76 amino acid 125-I-Fkn polypeptide containing the CX3C domain) that bind to CX3CR1 to block G glycoprotein binding to 293-CX3CR1 cells was examined. In addition, to determine if binding of G glycoprotein to 293-CX3CR1 cells was dependent upon the CX3C motif, G glycoprotein peptides with a single residue insertion (Δ+1) or deletion (Δ−1) in the CX3C motif and also peptides that lacked or included the CX3C motif (Table 4) were generated. This panel of peptides was analyzed for their ability to block G glycoprotein or Fkn binding to 293-CX3CR1 cells.
Inhibition of Fkn and G glycoprotein binding to 293-CX3CR1 cells by treatment with monoclonal antibodies to G glycoprotein or CX3CR1, or treatment with G glycoprotein, Fkn, or G glycoprotein peptides in the presence or absence of heparin as described in Methods. […] The concentration of G glycoprotein was estimated using a molecular weight of 90 kD.

T1 sequence (P49238 whole entry): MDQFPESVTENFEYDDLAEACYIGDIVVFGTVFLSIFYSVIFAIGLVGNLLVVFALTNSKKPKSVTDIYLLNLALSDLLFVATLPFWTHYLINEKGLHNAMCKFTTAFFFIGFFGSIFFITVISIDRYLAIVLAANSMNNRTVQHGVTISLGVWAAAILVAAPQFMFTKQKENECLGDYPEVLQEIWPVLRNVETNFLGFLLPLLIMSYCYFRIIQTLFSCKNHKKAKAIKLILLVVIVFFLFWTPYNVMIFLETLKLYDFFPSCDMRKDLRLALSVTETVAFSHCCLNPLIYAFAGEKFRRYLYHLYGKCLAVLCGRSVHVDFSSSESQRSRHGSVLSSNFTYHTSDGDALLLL

Take SDF-1α [reference compound]: the “plaque inhibition (%)” value is listed as 5% in assay [1] (1 nM), 7% in assay [1] (10 nM) and 12% in assay [1] (100 nM). In assay [1] (in words), the “effect on RSV plaque formation / plaque number” value is “no effect on RSV plaque formation was detected”.
In the case of “TCAAACKRIPNKK [EYp1, 13-mer G glycoprotein peptide variant of RT33 with CAAAC motif]”, in assay [2] (day 3 pi), the “Total IC cytokine Expressing CD3^+ BAL cells (×10^3) ± SEM: IFNγ” value is 32 ± 7.3 ×10^3, the “Total IC cytokine Expressing CD3^+ BAL cells (×10^3) ± SEM: IL-4” value is reported as 32 ± 7.2 ×10^3, the “Total IC cytokine Expressing CD3^+ BAL cells (×10^3) ± SEM: IL-5” value is 34 ± 7.7 ×10^3 and the “Total IC cytokine Expressing CD3^+ BAL cells (×10^3) ± SEM: IL-6” value is given as 35 ± 8.0 ×10^3. Also, the “Total IC cytokine Expressing CD3^+ BAL cells (×10^3) ± SEM: TNFα” value in assay [2] (day 3 pi) is 36 ± 8.1 ×10^3. Further, the “Total IC cytokine Expressing CD3^+ BAL cells (×10^3) ± SEM: IL-2” value in assay [2] (day 3 pi, peptide 24 hours prior to RSV infection) is 26 ± 6.0 ×10^3. Besides, in assay [2] (day 5 pi), the “Total IC cytokine Expressing CD3^+ BAL cells (×10^3) ± SEM: IFNγ” value is recorded as 26 ± 5.4 ×10^3, the “Total IC cytokine Expressing CD3^+ BAL cells (×10^3) ± SEM: IL-2” value is listed as 17 ± 3.6 ×10^3, the “Total IC cytokine Expressing CD3^+ BAL cells (×10^3) ± SEM: IL-4” value is given as 28 ± 5.6 ×10^3 and the “Total IC cytokine Expressing CD3^+ BAL cells (×10^3) ± SEM: IL-5” value is recorded as 32 ± 6.5 ×10^3. For the same molecule, in assay [2] (day 5 pi), the “Total IC cytokine Expressing CD3^+ BAL cells (×10^3) ± SEM: IL-6” value is reported as 19 ± 7.4 ×10^3 and the “Total IC cytokine Expressing CD3^+ BAL cells (×10^3) ± SEM: TNFα” value was 41 ± 8.4 ×10^3. Further, in assay [2] (day 7 pi), the “Total IC cytokine Expressing CD3^+ BAL cells (×10^3) ± SEM: IFNγ” value is 18 ± 2.6 ×10^3, the “Total IC cytokine Expressing CD3^+ BAL cells (×10^3) ± SEM: IL-2” value was 7.8 ± 1.1 ×10^3, the “Total IC cytokine Expressing CD3^+ BAL cells (×10^3) ± SEM: IL-4” value is given as 12 ± 1.6 ×10^3 and the “Total IC cytokine Expressing CD3^+ BAL cells (×10^3) ± SEM: IL-5” value was 20 ± 2.8 ×10^3. In assay [2] (day 7 pi), the “Total IC cytokine Expressing CD3^+ BAL cells (×10^3) ± SEM: IL-6” value is on record as 17 ± 2.4 ×10^3 and the “Total IC cytokine Expressing CD3^+ BAL cells (×10^3) ± SEM: TNFα” value was 6.8 ± 2.8 ×10^3. Moreover, in assay [2] (day 14 pi), the “Total IC cytokine Expressing CD3^+ BAL cells (×10^3) ± SEM: IFNγ” value is reported as 5.3 ± 0.3 ×10^3, the “Total IC cytokine Expressing CD3^+ BAL cells (×10^3) ± SEM: IL-2” value is reported as 5.1 ± 0.3 ×10^3, the “Total IC cytokine Expressing CD3^+ BAL cells (×10^3) ± SEM: IL-4” value is 5.4 ± 0.3 ×10^3 and the “Total IC cytokine Expressing CD3^+ BAL cells (×10^3) ± SEM: IL-5” value is 7.7 ± 0.5 ×10^3. Besides, in assay [2] (day 14 pi), the “Total IC cytokine Expressing CD3^+ BAL cells (×10^3) ± SEM: IL-6” value is reported as 5.0 ± 0.3 ×10^3 and the “Total IC cytokine Expressing CD3^+ BAL cells (×10^3) ± SEM: TNFα” value is reported as 6.8 ± 0.5 ×10^3. Moreover, in assay [3] (day 3 pi), the “total BAL numbers compared to mice treated with RT34, Δ−1 or PBS” value is recorded as “reduced BAL numbers”. The “numbers of BAL cell types (B220+, CD3+, CD11b+, NK, PMN)” value in assay [3] (days 3, 5, 7 and 14 pi) was “increased numbers of CD3+ cells on days 5 and 7 pi”. In addition, the “course of BAL numbers” value in assay [3] (from day 3 to day 14 pi) is “increased”.

B1: MIP-2: chemokine (protein)
chain: AVVASELRCQCLKTLPRVDFKNIQSLSVTPPGPHCAQTEVIATLKGGQKVCLDPEAPLVQKIIQKILNKGKAN
For the molecule B1, the “Range of Inhibition (%) of Fkn binding” value in assay [4] is reported as 0-4%. In assay [5], the “Range of Inhibition (%) of G glycoprotein binding” value is 2-8%.

B2: IP-10: chemokine (protein, UniProt P17515 22-98, looked up)
C-X-C motif chemokine 10: IPLARTVRCNCIHIDDGPVRMRAIGKLEIIPASLSCPRVEIIATMKKNDEQRCLNPESKTIKNLMKAFSQKRSKRAP
In the case of B2, in assay [4], the “Range of Inhibition (%) of Fkn binding” value is recorded as 0-6%. In assay [5], the “Range of Inhibition (%) of G glycoprotein binding” value is given as 0-4%.

B3: C10: macrophage inflammatory protein-related protein-1 (C10), chemokine (protein)
chain: GLIQEMEKEDRRYNPPIIHQGFQDTSSDCCFSYATQIPCKRFIYYFPTSGGCIKPGIIFISRRGTQVCADPSDRRVQRCLSTLKQGPRSGNKVIA
With B3, the “Range of Inhibition (%) of Fkn binding” value in assay [4] was 4-8%. In addition, the “Range of Inhibition (%) of G glycoprotein binding” value in assay [5] is given as 5-8%.

B4: KC: growth regulated oncogene-α, KC, chemokine (protein, UniProt P12850 25-96, looked up)
Growth-regulated alpha protein: APIANELRCQCLQTMAGIHLKNIQSLKVLPSGPHCTQTEVIATLKNGREACLDPEAPLVQKIVQKMLKGVPK
Consider B4, for which the “Range of Inhibition (%) of Fkn binding” value in assay [4] is 4-6%. For the same molecule, the “Range of Inhibition (%) of G glycoprotein binding” value in assay [5] is 0-6%.
